# Source: publication PMC11003488 (Journal of Enzyme Inhibition and Medicinal Chemistry, 2023)
# Columns and labels:
# HL-60(TB) = test: cells; type: cell-based; settings: Homo sapiens; for GI50: HL-60; for inhibition at 10 µM: HL-60, read-out: percent growth inhibition
# MOLT-4 = test: NCI-60 SRB growth inhibition, one-dose and five-dose; type: cell-based; settings: Homo sapiens; for GI50: MOLT-4; for inhibition at 10 µM: MOLT-4, read-out: percent growth inhibition
# RPMI-8226 = test: as above; type: cell-based; settings: Homo sapiens; for GI50: RPMI-8226; for inhibition at 10 µM: RPMI-8226, read-out: percent growth inhibition
# EKVX = test: as above; type: cell-based; settings: Homo sapiens; for inhibition at 10 µM: read-out: percent growth inhibition
# NCI-H23 = test: as above; type: cell-based; settings: Homo sapiens; for GI50: NCI-H23; for inhibition at 10 µM: NCI-H23, read-out: percent growth inhibition
# KM12 = test: as above; type: cell-based; settings: Homo sapiens; for GI50: KM12; for inhibition at 10 µM: KM12, read-out: percent growth inhibition
# SW-620 = test: as above; type: cell-based; settings: Homo sapiens; for GI50: SW-620; for inhibition at 10 µM: SW-620, read-out: percent growth inhibition
# U251 = test: as above; type: cell-based; settings: Homo sapiens; for GI50: U-251; for inhibition at 10 µM: U-251, read-out: percent growth inhibition
# M14 = test: as above; type: cell-based; settings: Homo sapiens; for GI50: M14; for inhibition at 10 µM: M14, read-out: percent growth inhibition
# SK-MEL-28 = test: as above; type: cell-based; settings: Homo sapiens; for GI50: SK-MEL-28; for inhibition at 10 µM: SK-MEL-28, read-out: percent growth inhibition
# UACC-257 = test: as above; type: cell-based; settings: Homo sapiens; for GI50: UACC-257; for inhibition at 10 µM: UACC-257, read-out: percent growth inhibition
# OVCAR-8 = test: as above; type: cell-based; settings: Homo sapiens; for inhibition at 10 µM: OVCAR-8, read-out: percent growth inhibition
# SK-OV-3 = test: as above; type: cell-based; settings: Homo sapiens; for GI50: SK-OV-3; for inhibition at 10 µM: SK-OV-3, read-out: percent growth inhibition
# SN12C = test: as above; type: cell-based; settings: Homo sapiens; for inhibition at 10 µM: read-out: percent growth inhibition
# TK-10 = test: as above; type: cell-based; settings: Homo sapiens; for GI50: TK-10; for inhibition at 10 µM: TK-10, read-out: percent growth inhibition
# UO-31 = test: as above; type: cell-based; settings: Homo sapiens; for GI50: UO-31
# PC-3 = test: as above; type: cell-based; settings: Homo sapiens; for GI50: PC-3; for inhibition at 10 µM: PC-3, read-out: percent growth inhibition
# MDA-MB-231/ATCC = test: as above; type: cell-based; settings: Homo sapiens; for GI50: MDA-MB-231
# MDA-MB-468 = test: as above; type: cell-based; settings: Homo sapiens; for GI50: MDA-MB-468; for inhibition at 10 µM: MDA-MB-468, read-out: percent growth inhibition
# Leukaemia cell lines = test: NCI-60 SRB growth inhibition, subpanel; type: cell-based, human; settings: Homo sapiens, read-out: GI50 MG-MID
# NSCLC cell lines = test: NCI-60 SRB growth inhibition, subpanel; type: cell-based, human; settings: Homo sapiens, read-out: GI50 MG-MID
# Colon cancer cell lines = test: NCI-60 SRB growth inhibition, subpanel; type: cell-based, human; settings: Homo sapiens, read-out: GI50 MG-MID
# CNS cancer cell lines = test: NCI-60 SRB growth inhibition, subpanel; type: cell-based, human; settings: Homo sapiens, read-out: GI50 MG-MID
# Melanoma cell lines = test: NCI-60 SRB growth inhibition, subpanel; type: cell-based, human; settings: Homo sapiens, read-out: GI50 MG-MID
# [1] = test system: Ovarian cancer cell lines; test: NCI-60 SRB growth inhibition, subpanel; type: cell-based, human; settings: Homo sapiens, read-out: GI50 MG-MID
# Renal cancer cell lines = test: NCI-60 SRB growth inhibition, subpanel; type: cell-based, human; settings: Homo sapiens, read-out: GI50 MG-MID
# [2] = test system: Prostate cancer cell lines; test: NCI-60 SRB growth inhibition, subpanel; type: cell-based, human; settings: Homo sapiens, read-out: GI50 MG-MID
# Breast cancer cell lines = test: NCI-60 SRB growth inhibition, subpanel; type: cell-based, human; settings: Homo sapiens, read-out: GI50 MG-MID
# [3] = Cytotoxicity towards normal fibroblasts, safety index; type: cell-based, human; settings: human, WI-38 normal fibroblast cells
# [4] = test system: WI-38 normal human fibroblast cells; test: as above; type: cell-based; settings: WI-38 versus cancer cell lines
# Human VEGFR-2 = Human VEGFR-2 (Homo sapiens, UniProt P35968); test: VEGFR-2 inhibition assay; type: biochemical
# Sequence of Human VEGFR-2 (P35968 20-1356): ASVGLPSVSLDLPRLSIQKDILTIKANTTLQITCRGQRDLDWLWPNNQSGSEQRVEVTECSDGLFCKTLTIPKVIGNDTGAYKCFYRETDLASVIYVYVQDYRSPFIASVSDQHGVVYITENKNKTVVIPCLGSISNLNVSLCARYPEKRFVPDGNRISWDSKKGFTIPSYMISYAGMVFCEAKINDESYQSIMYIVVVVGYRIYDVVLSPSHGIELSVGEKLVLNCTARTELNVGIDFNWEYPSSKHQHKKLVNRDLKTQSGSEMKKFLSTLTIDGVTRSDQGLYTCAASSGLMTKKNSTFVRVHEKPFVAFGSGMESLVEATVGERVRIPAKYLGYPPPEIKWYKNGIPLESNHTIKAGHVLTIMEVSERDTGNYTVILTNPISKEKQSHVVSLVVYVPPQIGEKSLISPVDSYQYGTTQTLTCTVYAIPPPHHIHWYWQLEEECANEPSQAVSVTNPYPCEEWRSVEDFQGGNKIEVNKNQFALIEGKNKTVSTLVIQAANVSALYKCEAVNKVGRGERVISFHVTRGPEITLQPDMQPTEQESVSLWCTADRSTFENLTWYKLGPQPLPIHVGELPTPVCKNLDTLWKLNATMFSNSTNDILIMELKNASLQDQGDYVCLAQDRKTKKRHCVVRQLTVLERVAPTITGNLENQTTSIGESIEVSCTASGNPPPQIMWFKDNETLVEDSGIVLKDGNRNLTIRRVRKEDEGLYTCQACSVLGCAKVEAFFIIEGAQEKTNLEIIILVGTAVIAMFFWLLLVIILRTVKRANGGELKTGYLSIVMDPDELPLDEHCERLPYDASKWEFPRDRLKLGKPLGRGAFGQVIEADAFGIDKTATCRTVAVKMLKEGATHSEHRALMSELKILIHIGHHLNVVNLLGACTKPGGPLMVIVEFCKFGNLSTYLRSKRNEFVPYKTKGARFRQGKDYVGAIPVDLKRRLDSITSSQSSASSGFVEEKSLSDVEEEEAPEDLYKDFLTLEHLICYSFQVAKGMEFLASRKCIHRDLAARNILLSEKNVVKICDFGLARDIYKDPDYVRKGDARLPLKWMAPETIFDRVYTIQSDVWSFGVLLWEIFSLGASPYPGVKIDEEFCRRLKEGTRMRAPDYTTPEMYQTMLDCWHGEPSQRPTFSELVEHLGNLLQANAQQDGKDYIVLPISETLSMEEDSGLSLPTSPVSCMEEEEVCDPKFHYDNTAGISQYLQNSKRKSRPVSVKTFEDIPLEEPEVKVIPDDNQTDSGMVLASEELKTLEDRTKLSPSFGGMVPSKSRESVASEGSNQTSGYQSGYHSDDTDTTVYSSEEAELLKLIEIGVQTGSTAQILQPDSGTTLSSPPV
smiles,measurement,setting,value
"CC(=O)Nc1ccc(/C=C/C(=O)c2cccc(NCc3ccc(NC(C)=O)cc3)c2)cc1 [Compound 5g, (E)-N-(4–(3-(3-((4-acetamidobenzyl)amino)phenyl)-3-oxoprop-1-en-1-yl)phenyl) acetamide]",GI50,HL-60(TB),7.08 µM
same,inhibition at 10 µM,HL-60(TB),100%
same,GI50,MOLT-4,3.21 µM
same,inhibition at 10 µM,MOLT-4,116%
same,GI50,RPMI-8226,3.02 µM
same,inhibition at 10 µM,RPMI-8226,130%
same,GI50,EKVX,13.5 µM
same,inhibition at 10 µM,EKVX,43.7%
same,GI50,NCI-H23,14.4 µM
same,inhibition at 10 µM,NCI-H23,55.1%
same,GI50,KM12,13.4 µM
same,inhibition at 10 µM,KM12,163%
same,GI50,SW-620,1.9 µM
same,inhibition at 10 µM,SW-620,158%
same,GI50,U251,3.2 µM
same,inhibition at 10 µM,U251,181%
same,GI50,M14,12.6 µM
same,inhibition at 10 µM,M14,77%
same,GI50,SK-MEL-28,12.7 µM
same,inhibition at 10 µM,SK-MEL-28,98.3%
same,GI50,UACC-257,12.5 µM
same,inhibition at 10 µM,UACC-257,51.1%
same,inhibition at 10 µM,OVCAR-8,129%
same,GI50,SK-OV-3,16.3 µM
same,inhibition at 10 µM,SK-OV-3,0.18%
same,GI50,SN12C,4.82 µM
same,inhibition at 10 µM,SN12C,87%
same,GI50,TK-10,13.8 µM
same,inhibition at 10 µM,TK-10,33.2%
same,GI50,UO-31,10.8 µM
same,GI50,PC-3,11.6 µM
same,inhibition at 10 µM,PC-3,54.8%
same,GI50,MDA-MB-231/ATCC,4.56 µM
same,GI50,MDA-MB-468,10 µM
same,inhibition at 10 µM,MDA-MB-468,68.2%
same,GI50,Leukaemia cell lines,3.87 µM
same,GI50,NSCLC cell lines,12.2 µM
same,GI50,Colon cancer cell lines,8.13 µM
same,GI50,CNS cancer cell lines,9.95 µM
same,GI50,Melanoma cell lines,9.64 µM
same,GI50,[1],11.8 µM
same,GI50,Renal cancer cell lines,10.7 µM
same,GI50,[2],11.7 µM
same,GI50,Breast cancer cell lines,7.7 µM
same,GI50 at 48 h,[3],> 100 µM
same,Safety index,[4],>1
same,IC50,Human VEGFR-2,0.47 ± 0.013 µM
"CC(=O)Nc1ccc(/C=C/C(=O)c2cccc(NCc3csc4ccccc34)c2)cc1 [Compound 5i, (E)-N-(4–(3-(3-((benzo[b]thiophen-3-ylmethyl)amino)phenyl)-3-oxoprop-1-en-1-yl)phenyl) acetamide]",GI50,HL-60(TB),3.53 µM
same,inhibition at 10 µM,HL-60(TB),123%
same,GI50,MOLT-4,2.73 µM
same,inhibition at 10 µM,MOLT-4,111%
same,GI50,RPMI-8226,2.56 µM
same,inhibition at 10 µM,RPMI-8226,121%
same,GI50,EKVX,10.8 µM
same,inhibition at 10 µM,EKVX,73%
same,GI50,NCI-H23,9.1 µM
same,inhibition at 10 µM,NCI-H23,57.5%
same,GI50,KM12,5.12 µM
same,inhibition at 10 µM,KM12,129%
same,GI50,SW-620,2.6 µM
same,inhibition at 10 µM,SW-620,123%
same,GI50,U251,2.24 µM
same,inhibition at 10 µM,U251,165%
same,GI50,M14,10.9 µM
same,inhibition at 10 µM,M14,57.7%
same,GI50,SK-MEL-28,11.9 µM
same,inhibition at 10 µM,SK-MEL-28,53.4%
same,GI50,UACC-257,14.2 µM
same,inhibition at 10 µM,UACC-257,50.6%
same,inhibition at 10 µM,OVCAR-8,131%
same,GI50,SK-OV-3,16.7 µM
same,inhibition at 10 µM,SK-OV-3,1.94%
same,GI50,SN12C,3.29 µM
same,inhibition at 10 µM,SN12C,93.3%
same,GI50,TK-10,17.6 µM
same,inhibition at 10 µM,TK-10,23.9%
same,GI50,UO-31,5.16 µM
same,GI50,PC-3,4.57 µM
same,inhibition at 10 µM,PC-3,70.8%
same,GI50,MDA-MB-231/ATCC,3.42 µM
same,GI50,MDA-MB-468,4 µM
same,inhibition at 10 µM,MDA-MB-468,97.9%
same,GI50,Leukaemia cell lines,2.93 µM
same,GI50,NSCLC cell lines,11.2 µM
same,GI50,Colon cancer cell lines,6.66 µM
same,GI50,CNS cancer cell lines,6.12 µM
same,GI50,Melanoma cell lines,8.14 µM
same,GI50,[1],8.28 µM
same,GI50,Renal cancer cell lines,11.3 µM
same,GI50,[2],5.01 µM
same,GI50,Breast cancer cell lines,3.79 µM
same,GI50 at 48 h,[3],> 100 µM
same,Safety index,[4],>1
same,IC50,Human VEGFR-2,0.66 ± 0.018 µM
"COc1ccc(CNc2cccc(C(=O)/C=C/c3cccnc3)c2)cc1OC [Compound 5c, (E)-1–(3-((3,4-dimethoxybenzyl)amino)phenyl)-3-(pyridin-3-yl)prop-2-en-1-one]",GI50,HL-60(TB),2.78 µM
same,inhibition at 10 µM,HL-60(TB),59.6%
same,GI50,MOLT-4,2.95 µM
same,inhibition at 10 µM,MOLT-4,38.9%
same,GI50,RPMI-8226,2.14 µM
same,inhibition at 10 µM,RPMI-8226,99.7%
same,GI50,EKVX,10.4 µM
same,inhibition at 10 µM,EKVX,62.3%
same,GI50,NCI-H23,1.99 µM
same,inhibition at 10 µM,NCI-H23,73.6%
same,GI50,KM12,1.99 µM
same,inhibition at 10 µM,KM12,165%
same,GI50,SW-620,2.31 µM
same,inhibition at 10 µM,SW-620,177%
same,GI50,U251,3.62 µM
same,inhibition at 10 µM,U251,124%
same,GI50,M14,3.82 µM
same,inhibition at 10 µM,M14,146%
same,GI50,SK-MEL-28,5.22 µM
same,inhibition at 10 µM,SK-MEL-28,98.4%
same,GI50,UACC-257,12.5 µM
same,inhibition at 10 µM,UACC-257,34%
same,GI50,OVCAR-8; OVCAR-8,4.01 µM
same,inhibition at 10 µM,OVCAR-8,85.1%
same,GI50,SK-OV-3,16.6 µM
same,inhibition at 10 µM,SK-OV-3,41.8%
same,GI50,SN12C,11.8 µM
same,inhibition at 10 µM,SN12C,83.7%
same,GI50,TK-10,8.14 µM
same,inhibition at 10 µM,TK-10,23.9%
same,GI50,UO-31,10.5 µM
same,inhibition at 10 µM,"UO-31; UO-31, read-out: percent growth inhibition",65%
same,GI50,PC-3,8 µM
same,inhibition at 10 µM,PC-3,89%
same,GI50,MDA-MB-231/ATCC,2.96 µM
same,inhibition at 10 µM,"MDA-MB-231/ATCC; MDA-MB-231, read-out: percent growth inhibition",94.5%
same,GI50,MDA-MB-468,4.06 µM
same,inhibition at 10 µM,MDA-MB-468,157%
same,GI50,Leukaemia cell lines,2.6 µM
same,GI50,NSCLC cell lines,11.2 µM
same,GI50,Colon cancer cell lines,4.45 µM
same,GI50,CNS cancer cell lines,9.11 µM
same,GI50,Melanoma cell lines,7.75 µM
same,GI50,[1],8.65 µM
same,GI50,Renal cancer cell lines,9.08 µM
same,GI50,[2],10.2 µM
same,GI50,Breast cancer cell lines,5.96 µM
same,GI50 at 48 h,[3],> 100 µM
same,Safety index,[4],>1
same,IC50,Human VEGFR-2,0.96 ± 0.012 µM
